Measurements: patent US11617711B2, “Compositions and methods for dental care” (UNIVERSITY OF WASHINGTON, priority 2018, dated 2023)
Entries after “also recorded” stand apart in the source; their conditions may differ.

Key:
[1] = Fluoride delivery to tooth surface, EDXS of mineral layer; details: tooth surface treated with shADP5, then ionic fluoride (1100 ppm) delivered with ionic PO4
Experimental: shADP5 enables the delivery of ionic fluoride delivery to the tooth surface. After the tooth surface was treated shADP5, ionic fluoride was delivered with ionic PO4.

[2] = Visual observation of diffusion and mineralization reaction of calcium and phosphate gels on glass slide; type: physicochemical; details: gel formulation, calcium and phosphate gel drops on glass slide
From the text: Active ingredients stored separately in their respective gel/varnish/toothpaste formulations is important in preventing premature mineralization reactions. In all formulations, the peptide is to be delivered first, then the ionic calcium/phosphate or ionic calcium/phosphate/fluoride are delivered second. Understanding the reaction time is useful to characterize the prescribed treatment time and procedure. To inform treatment protocol, an experiment was designed in which two drops of gels containing calcium and phosphate were mixed with peptide gel and placed next each other on a glass slide close enough that upon subsequent spreading of the two droplets, they would come to contact with each other at their respective edges. Mineralization reactions were monitored visually be observing parts of the gels turning from clear (unreacted) to white (reacted).
Then the inverses of both quantities were taken to enable the determination of the diffusion constant based on the following equation: 1/t=D (1/x), where t is time, x is the width of reacted mineral (appear as white in FIG. 18) and D is the diffusion constant in units of mm/min. Shown in FIG. 19 is an example of the derived diffusion constants.

[3] = Thermal cycling of remineralized dentin samples in artificial saliva, SEM; design: species or system human; details: 3 rounds remineralized, 2,500 cycles (90 days) between 5 C and 50 C
Experimental: To ensure the thermal durability of the newly formed mineral layer on the dentin surface, thermal cycling tests were conducted on remineralized samples. After three rounds of peptide-guided remineralization, the sample was placed in a vial containing an artificial saliva solution consisting of 130 mM KCl, 20 mM HEPES, 1.5 mM CaCl2, 0.9 mM KH2PO4, and 1 mM NaCl. In order to mimic the temperature changes in the natural oral environment, the remineralized sample was cycled between 5 C and 50 C, holding for 30 seconds at each temperature. SEM images were taken of the mineral layer after 200 cycles (6 days) and 2,500 cycles (90 days) to compare the effects of thermal cycling at different time periods.

| Sequence | fluoride in the mineral layer (EDXS) [1] | extent of mineralization reaction versus without peptide [2] | mineral layer after thermal cycling [3] |
| --- | --- | --- | --- |
| SYENSHSQAINVDRT [shADP5] | incorporated | more extensive |  |
| SYEKSHSQAINTDRT [sADP5, shortened amelogenin derived peptide 5] |  |  | still present; also recorded: thermally stable |
